Results: US4981855A, “Medicament for psoriasis” (Takeda Chemical Industries, Ltd., priority 1988, dated 1991)

Legend:
[1] = tested on: Type III Allergic Reaction (Reversed Passive Arthus Reaction); assay: Type III allergic reaction (reversed passive Arthus reaction) in rats, oral (Experiment 1); format: in vivo, Rat (Jcl:SD); conditions: Rat; for inhibition in vivo at 3 mg/kg: 1 h, 3 mg/kg P.O., one hour before egg albumin, blue spot area vs. control, * P < 0.05, ** P < 0.01, read-out: Inhibition rate (%); for ED50: P.O., read-out: ID50 values
Method: Effect on Type III Allergic Reaction (Reversed Passive Arthus Reaction) in Rats
A group consisting of six Jcl:SD rats (7 week old, male) was used. The hair of the back of the animals was cut, under ether anesthesia, and 1 ml each of a 0.5% solution of egg albumin in physiological saline solution was injected into the tail vein of each test animal, followed by intradermal injection of 0.1 ml of rabbit anti-egg albumin antiserum at each of the left and right sides of the back and a further intradermal injection of 0.1 ml of physiological saline solution at the left side. Three hours later, each animal was intraveneously injected with 1 ml of 1% Evans' blue physiological saline solution. Thirty minutes later, the test animals were exfoliated and the area(mm^2) of each of the blue spots was measured. […] By comparing the area(mm^2) of the blue spot in the test group (treated group) with that of the control group (untreated group), inhibition rate was determined.

[2] = tested on: skin of the backs of rabbits (normal skin and damaged skin); assay: Four-week cumulative skin irritation test in rabbits (Experiment 4); format: in vivo, Rabbit; conditions: 0.25 g once a day for 4 weeks
Excerpt: Four-Week Cumulative Skin Irritation Test in Rabbits [Procedure]
0.25 g of each of white petrolatum (placebo) and 2.5% and 5.0% compound (A) ointments (of which base is white petrolatum) was applied to 2.5×2.5cm test sites (normal skin and damaged skin) formed on the skin of the backs of rabbits once a day for 4 weeks. The skin was observed daily according to the method of Draize [J. H. Draize et al., J. Pharmacol. Exp. Therap. 82, 337 (1944)]. On the day succeeding the completion of the administration, postmortem examinations were carried out and histopathologic examinations were conducted for the skin of the administrated sites.

[3] = tested on: Reversed Passive Arthus Reaction; assay: Rat reversed passive Arthus reaction, percutaneous ointment (Experiment 2); format: in vivo, Rat (Jcl:SD); conditions: for Inhibition rate (%): ointment (white petrolatum base)
Method: A group consisting of six Jcl:SD rats (7 week old, male) was used. The hair of the back of the animals was cut, under ether anesthesia, and 1 ml each of a 0.5% solution of egg albumin in physiological saline solution was injected into the tail vein of each test animal, followed by intradermal injection of 0.1 ml of rabbit anti-egg albumin antiserum at each of the left and right sides of the back and a further intradermal injection of 0.1 ml of physiological saline solution at the left side. Three hours later, each animal was intraveneously injected with 1 ml of 1% Evans' blue physiological saline solution. Thirty minutes later, the test animals were exfoliated and the area(mm^2) of each of the blue spots was measured. The test sample in a dose of 3 mg/kg was orally administered one hour before the injection of egg albumin. By comparing the area(mm^2) of the blue spot in the test group (treated group) with that of the control group (untreated group), inhibition rate was determined.
In place of the oral administration of 3 mg/kg of each specimen, two type of ointments (of which base is white petrolatum) different in specimen content as given in Table 2 and control petrolatum were applied to the reaction sites in an experiment in a similar manner as in Experiment 1.

[4] = Acute toxicity in mice (Experiment 3); format: in vivo, Mouse (Jcl:ICR); conditions: mouse, in vivo
Excerpt: (§1) The acute toxicity of the compound (A) was examined by using Jcl:ICR mice and JcL:Wistar rats.

Jcl:ICR mice = assay: Acute toxicity in mice (Experiment 3); format: in vivo, Mouse (Jcl:ICR); conditions: mice and rats; intraperitoneal, subcutaneous and oral (Table 3)
Excerpt: as §1

[5] = Acute toxicity in rats (Experiment 3); design: species or system Rat (JcL:Wistar); conditions: rat, in vivo
Excerpt: as §1

CCCn1c(=O)c2c(NC(C)=O)[nH]nc2n(CCC)c1=O [Compound 3]
inhibition in vivo at 3 mg/kg [1]: 55% | ED50 [1]: 2.9 mg/kg

CCCCn1c(=O)n(CCC)c(=O)c2c(NC)n(C(=O)OC)nc21 [Compound 6]
inhibition in vivo at 3 mg/kg [1]: 43% | ED50 [1]: 5.3 mg/kg

CCCCn1c(=O)n(CCC)c(=O)c2c(NC)n(C(=O)OC)nc21 [Compound (A)]
cumulative skin irritation ([2]; 2.5% ointment (white petrolatum base)): no cumulative skin irritation | cumulative skin irritation ([2]; 5% ointment (white petrolatum base)): no cumulative skin irritation | Inhibition rate (%) ([3]; 1.25 mg/site, *p < 0.05 vs. control): 46% | Inhibition rate (%) ([3]; 2.5 mg/site, **p < 0.01 vs. control): 59% | effect on reversed passive Arthus reaction ([3]; percutaneous administration): significantly depresses the reversed passive Arthus reaction | LD50 ([4]; ip, female, intraperitoneal): 1260 mg/kg | LD50 ([4]; ip, male, intraperitoneal): 1040 mg/kg | LD50 ([4]; po, female): 6310 mg/kg | LD50 ([4]; po, male): 4650 mg/kg | LD50 ([4]; sc, female, subcutaneous): > 5000 mg/kg | LD50 ([4]; sc, male, subcutaneous): > 5000 mg/kg | acute toxicity (Jcl:ICR mice): low in toxicity and can be safely administered | LD50 ([5]; ip, female, intraperitoneal): 580 mg/kg | LD50 ([5]; ip, male, intraperitoneal): 650 mg/kg | LD50 ([5]; po, female): 2380 mg/kg | LD50 ([5]; po, male): 2730 mg/kg | LD50 ([5]; sc, female, subcutaneous): > 6500 mg/kg | LD50 ([5]; sc, male, subcutaneous): > 6500 mg/kg

CCCCn1c(=O)c2c(NC)n(C(=O)OC)nc2n(CCC)c1=O [Compound 7]
inhibition in vivo at 3 mg/kg [1]: 49% | ED50 [1]: 3 mg/kg

CCCn1c(=O)c2c(N(C)C)nn(C)c2n(CCC)c1=O [Compound 5]
inhibition in vivo at 3 mg/kg [1]: 53%

CCCCn1c(=O)c2c(NC)n(C(=O)OC)nc2n(CCCC)c1=O [Compound 8]
inhibition in vivo at 3 mg/kg [1]: 30% | ED50 [1]: 30 mg/kg

CCCn1c(=O)c2c(N(C)C)n(C)nc2n(CCC)c1=O [Compound 4]
inhibition in vivo at 3 mg/kg [1]: 56%

CCn1c(=O)c2c(N)n(C(=O)OC)nc2n(CC)c1=O [Compound 1]
inhibition in vivo at 3 mg/kg [1]: 35% | ED50 [1]: 13.7 mg/kg

CCCn1c(=O)c2c(N)n(C(=O)OC)nc2n(CCC)c1=O [Compound 2]
inhibition in vivo at 3 mg/kg [1]: 50% | ED50 [1]: 2.4 mg/kg

CCCCn1c(=O)c2c(NC)n(C)nc2n(CCCC)c1=O [Compound 9]
inhibition in vivo at 3 mg/kg [1]: 31%
